The numbers were not newly measured in patent publication US20220031737A1, “PHARMACEUTICAL COMPOSITIONS COMPRISING CHROMIUM AND CARBOHYDRATE BLOCKERS” (GluCare LLC, priority 2016, published 2022), which cites them from elsewhere.

The conditions of data set [1]: Sprague-Dawley rats, gavage, % of control.
For data set [2] the following is noted: 1,000 μg of chromium per day.
For data set [3] the following is noted: overweight African-American females, caloric restriction and exercise combined with oral NBC.

For `O=C[C@H](O)[C@@H](O)[C@@H](O)CO` [L-arabinose], in data set [1], the “Glucose elevations above baseline over four hours following rice starch challenge, of control” value is 85%.
With `[Cr]` [chromium], in data set [2], the “Relief of symptoms of type 2 diabetes” value is reported as “highly effective”.
For the compound niacin-bound chromium [NBC], the “Fat loss and muscle loss compared to control group without NBC supplement” value in data set [3] is “increased fat loss and reduced muscle loss significantly”.
